Counter-ions that a name gives are not always drawn. Like-named read-outs stand apart in the source and are kept apart here. Residues, ends and D or L forms follow the SMILES beside them.
How the values were obtained:
[1] = tested on: human articular chondrocytes (hAC); assay: Ki-67 immunocytochemistry (proliferation); assay type: cell-based; settings: 48 h; 200 ng/mL CXCL12; simultaneous addition of inhibitors 1 µM; n = 4
Method: On the next day, an Alexa Fluor 488 labled anti-rabbit antibody (1:200, ab150077, Abcam) was added and nuclei were stained with DAPI (0.25 µg/mL). The fluorescence microscope Axioskop 2 mot plus was used for imaging and Ki-67 appeared in green and nuclei in blue.

[2] = tested on: human articular chondrocytes (hAC); assay: Osteogenic differentiation of hAC, Alizarin Red S staining (calcium deposition); assay type: cell-based; settings: 21 d osteogenic differentiation medium; 200 ng/mL CXCL12; inhibitors 1 µM; n = 5
Method: (§1) hAC were seeded in passage 2 at a density of 1 × 10^4 cells/cm^2 and osteogenic differentiation was induced on the next day by addition of osteogenic differentiation medium [ODM: DMEM, 10% FBS, 1 g/L glucose, 1% L-glutamine, 1% penicillin/streptomycin, 10 mM β-glycerophosphate disodium salt hydrate (Sigma-Aldrich), 0.1 µM dexamethasone, 200 µM 2-phospho-L-ascorbic acid trisodium salt]. […] Medium was changed twice a week and additives were refreshed every time. Cells cultured in BM served as negative control.
Evaluation of osteogenic differentiation was carried out by means of an Alizarin Red S staining which indicates calcium deposition. At first, cells were incubated in 70% ethanol for 1 h and subsequently stained with a 40 mM Alizarin Red S solution. For quantification, the cells were washed carefully and bound Alizarin Red S was dissolved in 10% Cetylpyridinium (Sigma-Aldrich). With a multimode microplate reader Infinite M200 Pro (Tecan Austria GmbH, Crailsheim, Germany), absorbance at 652 nm was measured and the amount of Alizarin Red S was calculated based on a standard calibration curve.

[3] = tested on: human articular chondrocytes (hAC); assay: Gene expression during osteogenic differentiation of hAC (qRT-PCR); assay type: cell-based; settings: 14 d osteogenic differentiation; 200 ng/mL CXCL12; inhibitors 1 µM; n = 4
Method: as §1

ACKR3 [4] = target: T1, ACKR3 (Homo sapiens, UniProt P25106); settings: cited from earlier work
Source text: (§2) In case of CXCR4, there is evidence that binding of CXCL12 promotes a hypertrophic phenotype in chondrocytes, characterized by enhanced catabolic enzyme production (e.g., matrix metalloproteinase 13 (MMP-13)) and collagen type X expression.

[5] = tested on: Dunkin Hartley guinea pigs; settings: cited from earlier work
Source text: as §2

mice [6] = settings: cited from earlier work
Source text: as §2

mice [7] = settings: cited from earlier work; remark: listed apart in the source
Source text: as §2, with “expression. […] It should also be considered that the pathophysiological mechanisms are not mediated by chondrocytes alone.” for “expression.”

mouse = settings: both inflammatory mouse models; cited from earlier work
Source text: To date, three CXCR4 antagonist have been approved for clinical applications. However, these ligands are only approved for autologous stem cell transplantation in Non-Hodgkin’s lymphoma and the treatment of the WHIM syndrome, a rare congenital immunodeficiency disorder. One decade ago, another promising CXCR4 inhibitor was identified – the Endogenous Peptide Inhibitor of CXCR4, termed EPI-X4 [33]. EPI-X4 is a 16 amino acids long endogenous fragment of human serum albumin and specifically binds to CXCR4 thereby acting as an antagonist and inverse agonist. Using rational dru ...

MSCs = settings: AMD3100 400 µM, cited from earlier work
[8] = cited from earlier work
ACKR3 [9] = target: T1, ACKR3; assay: β-arrestin-2 recruitment at ACKR3, agonism (NanoBiT, transfected HEK293T cells); assay type: cell-based; set-up: SmBiT (NanoBiT fragment); expressed in transfected cells; host or cells: HEK293T; settings: compound alone
Method: Fifteen thousand HEK293T cells were seeded in 92 µL complete DMEM medium (supplemented with 10% FCS, 1% L-Glutamine and 1% penicillin/streptomycin) and allowed to adhere overnight. On the next day cells were transfected with plasmids containing a β-arrestin-2 coupled to a SmBiT and a CXCR4 or ACKR3 construct coupled to the LgBiT of the NanoBiT protein–protein-interaction assay system. The SmBiT was coupled to the intracellular C-term of the receptor, while the LgBiT was coupled to the N-term of the ß-arrestin. For the transfection, LT1 transfection reagent was used according to manufacturer’s instructions. The next day, medium was changed to 100µL pre-warmed OptiMEM before luminescence measurements were initiated.
For agonism measurements, single compounds were added to the wells after 10 min of background measurement. Baseline correction was performed in the same manner and resulting AUCs were compared to the buffer-only control wells to calculate n-fold ß-arrestin induction.

CXCR4 = target: T2, CXCR4 (Homo sapiens, UniProt P61073); assay: Inhibition of CXCL12-induced β-arrestin-2 recruitment at CXCR4 (NanoBiT, transfected HEK293T cells); assay type: cell-based
T2 construct: SmBiT (NanoBiT fragment); expressed in transfected cells; host or cells: HEK293T
Method: Fifteen thousand HEK293T cells were seeded in 92 µL complete DMEM medium (supplemented with 10% FCS, 1% L-Glutamine and 1% penicillin/streptomycin) and allowed to adhere overnight. On the next day cells were transfected with plasmids containing a β-arrestin-2 coupled to a SmBiT and a CXCR4 or ACKR3 construct coupled to the LgBiT of the NanoBiT protein–protein-interaction assay system. […] For the transfection, LT1 transfection reagent was used according to manufacturer’s instructions. The next day, medium was changed to 100µL pre-warmed OptiMEM before luminescence measurements were initiated.
For antagonism measurements, cells were first supplied with compounds and 10 min later with 30 nM CXCL12. Subsequently, luminescence signal was measured over 1 h. Baseline luminescence of each well in the first 10 min was averaged and used to calculate the signal-to-noise ratio for all subsequent time points of the same well. The signal-to-noise ratios were further recalculated as a ratio to the average of buffer-only treated wells. These values were plotted over time and areas under curve (AUCs) were determined for each well. Data were normalized to buffer-only wells as 0% and CXCL12-only treated wells as 100%.

[10] = tested on: human articular chondrocytes (hAC); assay: alamarBlue cytotoxicity/cell proliferation assay; assay type: cell-based; settings: 24 h; 200 ng/mL CXCL12; CXCR4 inhibitors 1 µM in combination with CXCL12 or alone; n = 5
Method: (§3) During experiments, hAC were cultured in medium with reduced FBS content (5%) and stimulated with 200 ng/mL CXCL12, 1 µM compounds and/or 10 ng/mL IL-1β. Stress-induced premature senescence (SIPS) was induced by Doxorubicin (Doxo) (Selleckchem) treatment. The senescent phenotype was confirmed as previously described. In brief, hAC were exposed to 0.1 µM Doxo for 7 days. Doxo was refreshed three times per week.
To quantitatively assess the cell proliferation and cytotoxicity of hAC, an alamarBlue (BioRad, Munich, Germany) assay was used. The assay is based on the conversion of non-fluorescent resazurin to fluorescent resorufin during cellular respiration. The fluorescence intensity of resorufin was measured at 550 nm excitation and 590 nm emission with a multimode microplate reader Infinite M200 Pro (Tecan, Crailsheim, Germany). Unstimulated cells served as baseline (100% cell viability).

human cartilage explants = assay: Live/dead viability/cytotoxicity assay in cartilage explants; assay type: cell-based; settings: day 7; 200 ng/mL CXCL12 with or without CXCR4 inhibitors 1 µM; n = 5
Method: A Live/Dead Viability/Cytotoxicity Assay (Live Technologies) was applied to determine the number of living and dead cells in cartilage explants. A small tissue section of 0.5 mm thickness was extracted from an unfixed cartilage explant and incubated for 40 min in a staining solution (1 µM calcein and 2 µM ethidium homodimer-1). Microscopic analysis was carried out with a Axioskop 2 mot plus microscope and using a z-stack model (AxioVision software).

[11] = tested on: human articular chondrocytes (hAC); assay: Gene expression of hypertrophy markers in isolated hAC (qRT-PCR); assay type: cell-based; settings: 48 h; 200 ng/mL CXCL12; n = 4
Method: as §3

[12] = tested on: human articular chondrocytes (hAC); assay: Chondrogenic re-differentiation of hAC in pellet culture, histological scoring; assay type: cell-based; settings: 28 d in chondrogenic differentiation medium; 200 ng/mL CXCL12; inhibitors 1 µM; n ≥ 4
Method: Pellet cultures were generated containing 3.5 × 10^5 hAC in passage 3 and were cultured in chondrogenic differentiation medium [SFM: DMEM, 4.5 g/L glucose, 1% L-glutamine, 1% penicillin/streptomycin, 200 μM 2-phospho-L-ascorbic acid trisodium salt, 0.1% Insulin-Transferrin-Selenium, 0.1 µM dexamethasone (Sigma-Aldrich), 40 µg/mL L-proline (Sigma-Aldrich), 1% pyruvate, 10 ng/mL rhTGF-β3 (PeproTech), 10 ng/mL rhBMP6 (PeproTech)]. The medium was changed twice per week and 200 ng/mL CXCL12 and 1 µM compounds was added. After 28 days, resulting cell pellets were embedded in paraffin and prepared for histology (Collagen type II-IHC and Safranin O staining). For evaluation, a previously established scoring system was used (supplementary Table S2).

[13] = tested on: human articular chondrocytes (hAC); assay: Wound healing assay; assay type: cell-based; settings: 24 h; 200 ng/mL CXCL12; inhibitors 1 µM; 5% FBS; n ≥ 5
Method: At first, a 2 Well Culture-Insert (Ibidi, Gräfelfing, Germany) was attached on a well of a 24 well plate. In each well of the insert, 70 µL cell suspension containing 20,000 hAC (passage 1 or 2) was added and incubated overnight. Next, medium with reduced FBS content (5%) was added and the insert carefully removed. […] Images were captured (Canon EOS 700D camera (Canon, Krefeld, Germany)) after 0 h and 24 h. Cells migrated into the gap were manually counted as previously described.

[14] = tested on: human articular chondrocytes (hAC); assay: Live cell imaging of undirected migration; assay type: cell-based; settings: 200 ng/mL CXCL12; inhibitors 1 µM; monitored for 10 h (method), legend says 48 h; normalized to untreated control; n = 5
Method: Subsequently, cell localization was monitored for 10 h with a Live Cell Imaging Microscope Leica DMI6000 I (Leica Microsystems, Wetzlar, Germany). Images were acquired every 30 min and at least 6 cells of each well were manually tracked with ImageJ 2.9.0. The average migration distance was calculated and values were normalized to the untreated control.

T1 sequence (P25106 whole entry): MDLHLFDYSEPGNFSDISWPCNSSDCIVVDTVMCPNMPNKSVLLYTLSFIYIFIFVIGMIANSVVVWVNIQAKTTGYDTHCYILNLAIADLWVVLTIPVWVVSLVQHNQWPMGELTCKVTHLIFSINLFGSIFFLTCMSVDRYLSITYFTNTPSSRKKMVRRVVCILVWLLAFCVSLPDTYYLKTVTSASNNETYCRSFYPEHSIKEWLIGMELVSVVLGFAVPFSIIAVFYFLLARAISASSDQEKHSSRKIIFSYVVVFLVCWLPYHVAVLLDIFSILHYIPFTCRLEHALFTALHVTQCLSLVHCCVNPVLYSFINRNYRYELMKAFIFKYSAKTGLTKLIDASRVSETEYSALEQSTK
T1 sequence (P32121 whole entry partner): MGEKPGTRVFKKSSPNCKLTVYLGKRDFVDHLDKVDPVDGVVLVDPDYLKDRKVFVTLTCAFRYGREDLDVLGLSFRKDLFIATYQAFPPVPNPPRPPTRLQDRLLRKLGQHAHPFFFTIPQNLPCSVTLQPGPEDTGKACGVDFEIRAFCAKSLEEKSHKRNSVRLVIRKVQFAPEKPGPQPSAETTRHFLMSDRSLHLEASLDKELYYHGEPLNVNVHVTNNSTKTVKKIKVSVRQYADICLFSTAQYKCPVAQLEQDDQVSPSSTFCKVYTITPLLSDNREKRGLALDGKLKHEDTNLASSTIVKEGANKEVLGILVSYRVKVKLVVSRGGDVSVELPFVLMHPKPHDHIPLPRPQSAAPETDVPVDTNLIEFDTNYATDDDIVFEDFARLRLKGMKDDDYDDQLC
T2 sequence (P61073 whole entry, the tested form may be a part): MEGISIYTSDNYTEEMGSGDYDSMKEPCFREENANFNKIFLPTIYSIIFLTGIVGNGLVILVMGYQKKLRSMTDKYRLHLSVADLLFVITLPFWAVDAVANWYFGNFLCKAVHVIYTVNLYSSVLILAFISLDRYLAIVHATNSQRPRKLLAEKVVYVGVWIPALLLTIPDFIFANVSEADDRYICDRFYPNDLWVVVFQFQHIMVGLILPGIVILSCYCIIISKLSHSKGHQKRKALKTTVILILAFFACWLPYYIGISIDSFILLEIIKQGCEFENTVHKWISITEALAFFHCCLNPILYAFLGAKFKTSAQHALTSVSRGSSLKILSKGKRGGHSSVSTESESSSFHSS

Q: For `c1cc(CN2CCCNCCNCCCNCC2)ccc1CN1CCCNCCNCCCNCC1` [AMD3100, AMD3100 octahydrochloride hydrate], which “proliferation (Ki-67-positive cells)” value [1] is on record?
A: not altered

Q: What about the “Ca2+ deposition / matrix calcification (Alizarin Red S)” value [2] of the same compound?
A: could not find any influence

Q: And the “expression of the hypertrophic marker COL10A1 during osteogenic differentiation” value [3]?
A: significantly reduced

Q: And the “gene expression of osteogenic markers (ALPL, RUNX2, SP7, IBSP)” value [3]?
A: could not find any influence

Q: What about the “activity at ACKR3” value (ACKR3 [4]) of the same compound?
A: weak allosteric agonist

Q: What about the “spontaneous OA development” value [5] of the same compound?
A: attenuate

Q: And the “collagen-induced arthritis (CIA)” value (mice [6])?
A: attenuate

Q: And the “surgically-induced OA” value (mice [7]; mice)?
A: attenuate

Q: What about the “severity of surgically-induced OA on inhibition in subchondral bone” value (mice [7]; mouse model, delivery to subchondral bone via an osmotic pump) of the same compound?
A: reduced the severity

Q: And the “activity in mouse models of atopic dermatitis and eosinophilic asthma” value (mouse)?
A: only poorly active

Q: What about the “matrix calcification during in vitro osteogenesis of MSCs” value (MSCs) of the same compound?
A: not affected

Q: And the “gene expression of osteogenic markers during in vitro osteogenesis of MSCs” value (MSCs; to a limited extend)?
A: impaired

Q: What about the “clinical peak plasma concentrations” value [8] of the same compound?
A: ~ 1 μM

Q: What about the “agonistic activity to recruit β-arrestin-2 at ACKR3” value (ACKR3 [9]; concentrations up to 10 µM) of the same compound?
A: weak agonistic activity

Q: With `CC(C)C[C@H](NC(=O)[C@@H](NC(=O)[C@@H]1CCCN1C(=O)[C@@H](NC(=O)[C@H](CO)NC(=O)[C@@H](NC(=O)[C@H](CCC(N)=O)NC(=O)[C@@H]1CCCN1C(=O)[C@@H](NC(=O)[C@H](CCCCN)NC(=O)[C@H](CCCCN)NC(=O)[C@@H](NC(=O)[C@H](Cc1ccc(O)cc1)NC(=O)[C@H](CCCNC(=N)N)NC(=O)[C@@H](NC(=O)[C@@H](N)CC(C)C)C(C)C)[C@@H](C)O)C(C)C)C(C)C)[C@@H](C)O)[C@@H](C)O)C(=O)O` [EPI-X4] (H-LVRYTKKVPQVSTPTL-OH) as the compound, how does the IC50 (CXCR4) read?
A: 10.2 nM

Q: For `CC[C@H](C)[C@H](N)C(=O)N[C@@H](CC(C)C)C(=O)N[C@@H](CCCNC(=N)N)C(=O)N[C@@H](Cc1c[nH]c2ccccc12)C(=O)N[C@@H](CO)C(=O)N[C@@H](CCCNC(=N)N)C(=O)N[C@@H](CCCCN)C(=O)N[C@@H](CC(C)C)C(=O)N1CCC[C@H]1C(=O)N[C@@H](CS)C(=O)N[C@H](C(=O)N[C@@H](CO)C(=O)O)C(C)C` [EPI-X4 JM#21], which IC50 (CXCR4; read-out: IC50, inhibition of CXCL12-induced recruitment of β-arrestin-2 at CXCR4) is on record?
A: 164 nM

Q: And the EC50 (ACKR3 [9]; AUC vs buffer-only control)?
A: 7.8 µM

Q: With “CXCL12: C-X-C motif chemokine 12, ligand of CXCR4 and ACKR3; used as stimulus at 200 ng/mL” as the compound, how does the “cytotoxic effects in isolated chondrocytes (alamarBlue, relative fluorescence intensity)” value [10] read?
A: did not observe any cytotoxic effects

Q: And the “cytotoxic effects in native cartilage tissue (live/dead assay)” value (human cartilage explants)?
A: did not observe any cytotoxic effects

Q: And the “gene expression of COL10A1 in isolated chondrocytes” value [11]?
A: did not significantly induce

Q: And the “gene expression of MMP13 in isolated chondrocytes” value [11]?
A: did not significantly induce

Q: And the “neocartilage formation, histologic assessment (score) of pellet culture” value [12]?
A: did not reveal any significant effect

Q: What about the “number of migrated hAC in wound healing assay” value [13] of the same compound?
A: significantly increased

Q: What about the “migration distance of isolated hAC (live cell tracking)” value [14] of the same compound?
A: increased

Q: What about the “proliferation (Ki-67-positive cells)” value [1] of the same compound?
A: not altered

Q: What about the “Ca2+ deposition / matrix calcification (Alizarin Red S)” value [2] of the same compound?
A: could not find any influence

Q: What about the “expression of the hypertrophic marker COL10A1 during osteogenic differentiation” value [3] of the same compound?
A: tended to increase

Q: And the “gene expression of osteogenic markers (ALPL, RUNX2, SP7, IBSP)” value [3]?
A: could not find any influence

From PMC12670779, “Targeting the CXCL12/CXCR4 pathway by an optimized derivative or EPI-X4 preserves chondrocyte function and offers a novel therapeutic approach in rheumatic diseases” (Arthritis Research & Therapy, 2025)
